Data from patent US9096565B2, “Inhibitors of histone deacetylase” (MethylGene Inc., priority 2007, dated 2015).

Target: one or more of HDAC-4, HDAC-5, HDAC-6, HDAC-7, HDAC-8, HDAC-9, HDAC-10 and HDAC-11
Assay: Inhibition of histone deacetylase enzymatic activity (summary statement over isoforms)
Type: biochemical
Conditions: Table 3, selected examples; HDAC isoform not given
Method: The following protocol is used to assay the compounds of the invention.
The mixture is pre-incubated for 5 minutes at room temperature. The reaction is started by bringing the temperature to 37° C. and adding 15 μL substrate. Total reaction volume is 50 μL.
A 30 mM stock of Boc-Lys(trifluoroacetyl)-AMC substrate is prepared in DMSO. […] Reaction is started by adding 18 μL Boc-Lys(trifluoroacetyl)-AMC substrate and incubating at 37° C. for 20-30 minutes. The reaction is stopped by adding 50 μL trypsin (1 mg/mL) and a known HDAC inhibitor.

| IC50 [µM] | Structure (SMILES) |
| --- | --- |
| < 1 | O=C(Nc1ccc(C(C(=O)NO)c2ccccc2)cc1)C1CCCCC1 (stereo not drawn) [Compound 2-57, N-(4-(2-(hydroxyamino)-2-oxo-1-phenylethyl)phenyl)cyclohexanecarboxamide] |
| 1 to 15 | O=C(Nc1cccc(C(C(=O)NO)c2ccccc2)c1)C1CCCCC1 (stereo not drawn) [Compound 2-58, N-(3-(2-(hydroxyamino)-2-oxo-1-phenylethyl)phenyl)cyclohexanecarboxamide] |
| < 1 | O=C(Cc1ccccc1)Nc1ccc(C(C(=O)NO)c2ccccc2)cc1 (stereo not drawn) [Compound 2-59, N-hydroxy-2-phenyl-2-(4-(2-phenylacetamido)phenyl)acetamide] |
| < 1 | O=C(Cc1ccccc1)Nc1cccc(C(C(=O)NO)c2ccccc2)c1 (stereo not drawn) [Compound 2-60, N-hydroxy-2-phenyl-2-(3-(2-phenylacetamido)phenyl)acetamide] |
| < 1 | O=C(Nc1ccc(C(C(=O)NO)c2ccccc2)cc1)c1ccc(F)cc1 (stereo not drawn) [Compound 2-61, 4-fluoro-N-(4-(2-(hydroxyamino)-2-oxo-1-phenylethyl)phenyl)benzamide] |
| < 1 | O=C(Nc1cccc(C(C(=O)NO)c2ccccc2)c1)c1ccc(F)cc1 (stereo not drawn) [Compound 2-62, 4-fluoro-N-(3-(2-(hydroxyamino)-2-oxo-1-phenylethyl)phenyl)benzamide] |
| < 1 | Cc1cc(C(=O)Nc2ccc(C(C(=O)NO)c3ccccc3)cc2)c(C)o1 (stereo not drawn) [Compound 2-63, N-(4-(2-(hydroxyamino)-2-oxo-1-phenylethyl)phenyl)-2,5-dimethylfuran-3-carboxamide] |
| 1 to 15 | Cc1cc(C(=O)Nc2cccc(C(C(=O)NO)c3ccccc3)c2)c(C)o1 (stereo not drawn) [Compound 2-64, N-(3-(2-(hydroxyamino)-2-oxo-1-phenylethyl)phenyl)-2,5-dimethylfuran-3-carboxamide] |
| < 1 | Cc1ccsc1C(=O)Nc1ccc(C(C(=O)NO)c2ccccc2)cc1 (stereo not drawn) [Compound 2-65, N-(4-(2-(hydroxyamino)-2-oxo-1-phenylethyl)phenyl)-3-methylthiophene-2-carboxamide] |
| 1 to 15 | Cc1ccsc1C(=O)Nc1cccc(C(C(=O)NO)c2ccccc2)c1 (stereo not drawn) [Compound 2-66, N-(3-(2-(hydroxyamino)-2-oxo-1-phenylethyl)phenyl)-3-methylthiophene-2-carboxamide] |
| < 1 | O=C(COc1ccccc1)Nc1ccc(C(C(=O)NO)c2ccccc2)cc1 (stereo not drawn) [Compound 2-67, N-hydroxy-2-(4-(2-phenoxyacetamido)phenyl)-2-phenylacetamide] |
| < 1 | O=C(COc1ccccc1)Nc1cccc(C(C(=O)NO)c2ccccc2)c1 (stereo not drawn) [Compound 2-68, N-hydroxy-2-(3-(2-phenoxyacetamido)phenyl)-2-phenylacetamide] |
| < 1 | COc1ccc(C(=O)Nc2cccc(C(C(=O)NO)c3ccccc3)c2)cc1 (stereo not drawn) [Compound 2-69, N-(3-(2-(hydroxyamino)-2-oxo-1-phenylethyl)phenyl)-4-methoxybenzamide] |
| < 1 | O=C(CCC1CCCCC1)Nc1ccc(C(C(=O)NO)c2ccccc2)cc1 (stereo not drawn) [Compound 2-70, 3-cyclohexyl-N-(4-(2-(hydroxyamino)-2-oxo-1-phenylethyl)phenyl)propanamide] |
| < 1 | O=C(CCC1CCCCC1)Nc1cccc(C(C(=O)NO)c2ccccc2)c1 (stereo not drawn) [Compound 2-71, 3-cyclohexyl-N-(3-(2-(hydroxyamino)-2-oxo-1-phenylethyl)phenyl)propanamide] |
| < 1 | O=C(Nc1ccc(C(C(=O)NO)c2ccccc2)cc1)c1cccc(Cl)c1 (stereo not drawn) [Compound 2-72, 3-chloro-N-(4-(2-(hydroxyamino)-2-oxo-1-phenylethyl)phenyl)benzamide] |
| 1 to 15 | O=C(Nc1cccc(C(C(=O)NO)c2ccccc2)c1)c1cccc(Cl)c1 (stereo not drawn) [Compound 2-73, 3-chloro-N-(3-(2-(hydroxyamino)-2-oxo-1-phenylethyl)phenyl)benzamide] |
| < 1 | O=C(Nc1ccc(C(C(=O)NO)c2ccccc2)cc1)c1ccnc(Cl)c1 (stereo not drawn) [Compound 2-74, 2-chloro-N-(4-(2-(hydroxyamino)-2-oxo-1-phenylethyl)phenyl)isonicotinamide] |
| < 1 | O=C(Nc1ccc(C(C(=O)NO)c2ccccc2)cc1)c1ccc2c(c1)OCO2 (stereo not drawn) [Compound 2-75, N-(4-(2-(hydroxyamino)-2-oxo-1-phenylethyl)phenyl)benzo[d][1,3]dioxole-5-carboxamide] |
| < 1 | O=C(Nc1cccc(C(C(=O)NO)c2ccccc2)c1)c1ccc2c(c1)OCO2 (stereo not drawn) [Compound 2-76, N-(3-(2-(hydroxyamino)-2-oxo-1-phenylethyl)phenyl)benzo[d][1,3]dioxole-5-carboxamide] |
| < 1 | CC(C)CCNc1ccc(C(C(=O)NO)c2ccccc2)cc1 (stereo not drawn) [Compound 2-77, N-hydroxy-2-(4-(isopentylamino)phenyl)-2-phenylacetamide] |
| < 1 | O=C(NO)C(c1ccccc1)c1ccc(NCc2ccccc2)cc1 (stereo not drawn) [Compound 2-78, 2-(4-(benzylamino)phenyl)-N-hydroxy-2-phenylacetamide] |

| IC50 [µM] | Structure (SMILES) |
| --- | --- |
| 1 to 15 | O=C(NO)C(c1ccccc1)c1cccc(NCc2ccccc2)c1 (stereo not drawn) [Compound 2-79, 2-(3-(benzylamino)phenyl)-N-hydroxy-2-phenylacetamide] |
| < 1 | O=C(NO)C(c1ccccc1)c1ccc(NCc2ccncc2)cc1 (stereo not drawn) [Compound 2-80, N-hydroxy-2-phenyl-2-(4-(pyridin-4-ylmethylamino)phenyl)acetamide] |
| < 1 | O=C(NO)C(c1ccccc1)c1cccc(NCc2ccncc2)c1 (stereo not drawn) [Compound 2-81, N-hydroxy-2-phenyl-2-(3-(pyridin-4-ylmethylamino)phenyl)acetamide] |
| < 1 | O=C(NO)C(c1ccccc1)c1ccc(NCC2CCCCC2)cc1 (stereo not drawn) [Compound 2-82, 2-(4-(cyclohexylmethylamino)phenyl)-N-hydroxy-2-phenylacetamide] |
| 1 to 15 | O=C(NO)C(c1ccccc1)c1cccc(NCC2CCCCC2)c1 (stereo not drawn) [Compound 2-83, 2-(3-(cyclohexylmethylamino)phenyl)-N-hydroxy-2-phenylacetamide] |
| < 1 | COc1cccc(CNc2ccc(C(C(=O)NO)c3ccccc3)cc2)c1 (stereo not drawn) [Compound 2-84, N-hydroxy-2-(4-(3-methoxybenzylamino)phenyl)-2-phenylacetamide] |
| < 1 | COc1cccc(CNc2cccc(C(C(=O)NO)c3ccccc3)c2)c1 (stereo not drawn) [Compound 2-85, N-hydroxy-2-(3-(3-methoxybenzylamino)phenyl)-2-phenylacetamide] |
| < 1 | CCCS(=O)(=O)Nc1ccc(C(C(=O)NO)c2ccccc2)cc1 (stereo not drawn) [Compound 2-86, N-hydroxy-2-phenyl-2-(4-(propylsulfonamido)phenyl)acetamide] |
| 1 to 15 | CCCS(=O)(=O)Nc1cccc(C(C(=O)NO)c2ccccc2)c1 (stereo not drawn) [Compound 2-87, N-hydroxy-2-phenyl-2-(3-(propylsulfonamido)phenyl)acetamide] |
| < 1 | O=C(NO)C(c1ccccc1)c1ccc(NS(=O)(=O)c2ccccc2)cc1 (stereo not drawn) [Compound 2-88, N-hydroxy-2-phenyl-2-(4-(phenylsulfonamido)phenyl)acetamide] |
| 1 to 15 | O=C(NO)C(c1ccccc1)c1cccc(NS(=O)(=O)c2ccccc2)c1 (stereo not drawn) [Compound 2-89, N-hydroxy-2-phenyl-2-(3-(phenylsulfonamido)phenyl)acetamide] |
| < 1 | O=C(NO)C(c1ccccc1)c1ccc(NS(=O)(=O)c2cccs2)cc1 (stereo not drawn) [Compound 2-90, N-hydroxy-2-phenyl-2-(4-(thiophene-2-sulfonamido)phenyl)acetamide] |
| 1 to 15 | COc1ccc(S(=O)(=O)Nc2cccc(C(C(=O)NO)c3ccccc3)c2)cc1 (stereo not drawn) [Compound 2-91, N-hydroxy-2-(3-(4-methoxyphenylsulfonamido)phenyl)-2-phenylacetamide] |
| < 1 | O=C(NO)C(c1ccccc1)c1ccc(NS(=O)(=O)c2ccc(Cl)cc2)cc1 (stereo not drawn) [Compound 2-92, 2-(4-(4-chlorophenylsulfonamido)phenyl)-N-hydroxy-2-phenylacetamide] |
| 1 to 15 | O=C(NO)C(c1ccccc1)c1cccc(NS(=O)(=O)c2ccc(Cl)cc2)c1 (stereo not drawn) [Compound 2-93, 2-(3-(4-chlorophenylsulfonamido)phenyl)-N-hydroxy-2-phenylacetamide] |
| 1 to 15 | O=C(NO)C(c1ccccc1)c1cccc(C#Cc2ccccc2)c1 (stereo not drawn) [Compound 2-94, N-hydroxy-2-phenyl-2-(3-(phenylethynyl)phenyl)acetamide] |
| < 1 | O=C(NO)C(c1ccccc1)c1cccc(C#Cc2cccnc2)c1 (stereo not drawn) [Compound 2-95, N-hydroxy-2-phenyl-2-(3-(pyridin-3-ylethynyl)phenyl)acetamide] |
| < 1 | O=C(NO)C(c1ccccc1)c1cccc(C#CCC2CCCC2)c1 (stereo not drawn) [Compound 2-96, 2-(3-(3-cyclopentylprop-1-ynyl)phenyl)-N-hydroxy-2-phenylacetamide] |
| < 1 | O=C(NO)C(c1ccccc1)c1ccc(C#Cc2ccccc2)cc1 (stereo not drawn) [Compound 2-97, N-hydroxy-2-phenyl-2-(4-(phenylethynyl)phenyl)acetamide] |
| < 1 | O=C(NO)C(c1ccccc1)c1ccc(C#CCC2CCCC2)cc1 (stereo not drawn) [Compound 2-98, 2-(4-(3-cyclopentylprop-1-ynyl)phenyl)-N-hydroxy-2-phenylacetamide] |
| 1 to 15 | O=C(NO)C(c1ccccc1)c1cccc(-c2ccc(Oc3ccccc3)cc2)c1 (stereo not drawn) [Compound 2-100, N-hydroxy-2-(4′-phenoxybiphenyl-3-yl)-2-phenylacetamide] |
| < 1 | CCCc1cccc(C(C(=O)NO)c2ccccc2)c1 (stereo not drawn) [Compound 2-101, N-hydroxy-2-phenyl-2-(3-propylphenyl)acetamide] |

| Structure (SMILES) | IC50 [µM] |
| --- | --- |
| CCCCOc1ccc(C#Cc2ccc(C(C(=O)NO)c3ccccc3)cc2)cc1 (stereo not drawn) [Compound 2-99, 2-(4-((4-butoxyphenyl)ethynyl)phenyl)-N-hydroxy-2-phenylacetamide] | < 1 |
